The results in this text go back to ChEMBL document CHEMBL1250522 (Bioorg Med Chem, 2010).

One experiment concerns MCF7. The experiment is described as follows: Cytotoxicity against human MCF7 cells after 72 hrs by SRB assay. In kind it is functional, cell-based. To be noted: MCF7, 72 h.
Experiment [1] is described as follows: Cytotoxicity against human multidrug-resistant LCC-6 cells after 72 hrs by SRB assay. Conditions: LCC-6, 72 h. Background: In SRB staining, fixed cells bind dye roughly in proportion to their protein.
Experiment [2] in a line: Cytotoxicity against human wild type LCC-6 cells after 72 hrs by SRB assay. Conditions: LCC-6, 72 h.
Experiment [3] can be described thus: Cytotoxicity against human NCI/ADR cells after 72 hrs by SRB assay. Conditions: NCI/ADR-RES.
A further experiment deals with A2780. In words: Cytotoxicity against human A2780 cells after 72 hrs by SRB assay. The experiment is classed as functional, cell-based. Conditions: A2780, 72 h.
A further experiment concerns CFPAC-1. In words: Cytotoxicity against human CFPAC-1 cells after 72 hrs by SRB assay. In kind it is functional, cell-based. To be noted: CFPAC-1, 72 h.

pIC50: −log10 of the molar value.

On to `CC(=O)OCc1cccc2c1[C@H](OC(=O)c1ccccc1)[C@H]1C[C@H](OC(=O)[C@H](O)[C@@H](NC(=O)c3ccccc3)c3ccccc3)CN1C2=O`, for which the pIC50 in the experiment with MCF7 is 4.40; in experiment [1], below 4.00; in experiment [2], 4.44; in experiment [3], below 4.00; in the experiment on A2780, 5.11; in the experiment on CFPAC-1 it was below 4.00.

On to `CC(=O)OCc1cccc2c1[C@H](OC(=O)c1ccccc1)[C@H]1C[C@H](OC(=O)[C@H](O)[C@@H](NC(=O)c3ccccc3)c3ccccc3)CN1C(=O)C2`, for which the pIC50 in the experiment with MCF7 is 5.08; in experiment [1] it was 4.77; in experiment [2], 5.31; in experiment [3], 4.38; in the experiment on A2780, 5.42; in the experiment with CFPAC-1, 5.21.

In the case of `O=C1CC/C=C\COc2ccccc2[C@H](NC(=O)c2ccccc2)[C@@H](O)C(=O)O[C@H]2C[C@@H]3[C@@H](OC(=O)c4ccccc4)c4c(cccc4C(=O)N3C2)CO1`, the negative logarithm of the IC50 (pIC50) in the experiment on MCF7 was below 4.00; in experiment [1], below 4.00; in experiment [2], below 4.00; in experiment [3], below 4.00; with A2780 it was 4.83; in the experiment on CFPAC-1, below 4.00.

As usually defined, the pIC50 is the negative decadic logarithm of the IC50, by convention in mol/L. Read a low pIC50 as a large IC50.
